Three compounds from patent publication US7253299B2, “Process for purifying n2-(1(s)-ethoxycarbonyl-3-phenylpropyl)-n6-thifluoroacetyl-l-lysine” (Kaneka Corporation, priority 2001, dated 2007) can be followed below.

Molecules are shown by their SMILES.

A short description of the data set: Solubility of polymorphs in water/acetonitrile mixed solvent (saturated solution, HPLC). It counts as physicochemical. The conditions noted are these: water/acetonitrile mixed solvent (water/acetonitrile volume ratio 0.25), 15° C., ordinary pressure. On the procedure: A 50 ml four-neck flask was charged with 30 ml of a water/acetonitrile mixed solvent (water/acetonitrile volume ratio 0.25). After cooling the solvent to 5° C. with stirring, 5 g of each of polymorphs (I form, […] and […]) of N^2-(1(S)-ethoxycarbonyl-3-phenylpropyl)-N^6-trifluoroacetyl-L-lysine was added thereto, and the temperature was elevated to a predetermined temperature at a rate of 10° C./hour. After reaching the predetermined temperature, the solution was maintained at that temperature for about 1 hour. A sample of the resulting saturated solution was taken out, and the concentration (% by weight) of N^2-(1(S)-ethoxycarbonyl-3-phenylpropyl)-N^6-trifluoroacetyl-L-lysine was measured by HPLC analysis to determine the solubility at that temperature.
As for `CCOC(=O)[C@H](CCc1ccccc1)N[C@@H](CCCCNC(=O)C(F)(F)F)C(=O)O` [I form, N^2-(1(S)-ethoxycarbonyl-3-phenylpropyl)-N^6-trifluoroacetyl-L-lysine], the solubility entry is reported as “about 2.5 % by weight”.

For `CCOC(=O)[C@H](CCc1ccccc1)N[C@@H](CCCCNC(=O)C(F)(F)F)C(=O)O` [II form, N^2-(1(S)-ethoxycarbonyl-3-phenylpropyl)-N^6-trifluoroacetyl-L-lysine], the solubility entry is on record as “about 2.7 % by weight”.

In the case of `CCOC(=O)[C@H](CCc1ccccc1)N[C@@H](CCCCNC(=O)C(F)(F)F)C(=O)O` [III form, N^2-(1(S)-ethoxycarbonyl-3-phenylpropyl)-N^6-trifluoroacetyl-L-lysine], the solubility entry is reported as “about 3.1 % by weight”.
